These results are taken from patent US11344510B2, “Arylcyclohexylamine derivatives and their use in the treatment of psychiatric disorders” (Gilgamesh Pharmaceuticals, Inc., priority 2019, dated 2022).

Data set [1] is described as follows: Formation of metabolites 11R/11S in RLM (High Activity conditions). Type of data set: in vitro ADME, Sprague Dawley rats. The conditions noted are these: LC-MS/MS. The method, then:
RLM Stability (High Activity). Pooled RLM from male Sprague Dawley rats (XenoTech R1000, lot #1910100) were used. Microsomal incubations were carried out in 96-well plates in 5 aliquots of 40 μL each (one for each time point). Liver microsomal incubation medium consisted of PBS (100 mM, pH 7.4), MgCl2 (3.3 mM), NADPH (3 mM), glucose-6-phosphate (5.3 mM), and glucose-6-phosphate dehydrogenase (0.67 units/mL), with 1.0 mg of liver microsomal protein per mL. Control incubations were performed by replacing the NADPH-cofactor system with PBS. Test compounds (1 μM, final solvent concentration 1.6%) were incubated with microsomes at 37° C., shaking at 100 rpm. Incubations were performed in duplicate. Five time points over 60 minutes were analyzed. […] Supernatants were analyzed for parent compound remaining using a fit-for-purpose liquid chromatography-tandem mass spectrometry (LC-MS/MS) method, with authentic samples of each analyte used for identity confirmation.
This condition was also used for experiments measuring the formation of metabolite 11R from compounds 14R and 88R and formation of metabolite 11S from compounds 14S and 88S. The concentrations of 11R and 11S formed during the incubations were quantified using a fit-for-purpose liquid chromatography-tandem mass spectrometry (LC-MS/MS) method, with authentic samples of each analyte used for calibration and identity confirmation.

Data set [2] in a line: HLM stability (Low Activity, Alternative Method). The data set is classed as in vitro ADME. The conditions noted are these: both sexes, human, liver microsomes, pH 7.4, Condition 1 column, values marked *: Low Activity, 0.50 mg protein/mL. An outline of the steps:
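Pooled male and female human liver microsomes (0.50 mg/mL) in 100 mM PBS pH 7.4 with 1 mM MgCl2 and 1 mM NADPH, compound 1 μM (1.0% solvent), 37° C with shaking, six time points over 60 min. Parent remaining measured by LC-MS/MS; kel, t1/2 and Clint from linear regression of ln(AUC) versus time.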
A general note: Microsomes from liver hold many membrane-bound enzymes, among them those of drug oxidation.

In data set [3] the test system is mice (forced swim test). The data set can be described thus: Forced swim test in mice, 2-h pre-treatment. Type of data set: in vivo, CD-1 mice. The settings on record: s.c. How it is done: Animals. Male CD-1 mice, aged ˜8 weeks (body weight ˜25-30 g), were used in the experiments. Animals were singly housed under controlled temperatures and 12-hour light/dark cycles, with ad libitum food and water. These studies were carried out in strict accordance with the recommendations in the European Convention for the Protection of Vertebrate Animals Used for Experimental and Other Scientific Purposes. All efforts were made to minimize suffering.
Drugs and Drug Administration. Imipramine hydrochloride was administered intraperitoneally (i.p.) at a dose of 20 mg/kg. Other compounds were tested as the racemates (indicated by “rac” nomenclature) and were administered subcutaneously (s.c.) with doses calculated based on the freebase. Normal saline was used as the vehicle and all compounds were administered at a volume of 5 mL/kg, 2 h before behavioral testing.
Forced Swim Test (FST). Group size was n=10 per treatment, except for vehicle and rac-ketamine groups, which represented n=20 per treatment. Mice were placed individually in a glass cylinder measuring 19 cm wide by 30 cm tall and filled with 24° C. water to a depth of 18 cm. The activity of each mouse was video recorded during each 6-minute session and total immobility time was scored during the last 4 minutes of the session. The water was changed between each mouse to avoid any influence on behavior.
Statistical Analysis. […]

The test system of data set [4] is mice (conditioned place preference model of abuse liability). The data set can be described thus: Conditioned place preference in mice. The data set is classed as in vivo, C57BL/6 mice. The conditions noted are these: s.c., 3 drug conditioning trials, relative to saline vehicle. How it is done:
Animals. Male C57BL/6 mice, 5-8 weeks of age, (body weight 25-30 g; Envigo, Indianapolis, Ind., USA) were housed 5 per polycarbonate tub with soft bedding in a temperature- and humidity-controlled vivarium. Mice were maintained under a 12-h light/dark cycle with lights on at 06:00. Food and water were available ad libitum Animals acclimated to the vivarium 1 week prior to experimental manipulations.
Drugs and Drug Administration. Test compounds and saline vehicle were administered subcutaneously (s.c.), with doses calculated based on the HCl salt, while the positive control oxycodone was administered intraperitoneally (i.p.), with the dose calculated based on the HCl salt. Normal saline was used as the vehicle. […]
Conditioned Place Preference. Reward and/or aversion was assessed in conditioned place preference chambers (Model MED-CPP-3013; Med Associates, St. Albans, Vt.). […]
Group size was n=10 per treatment. […] Final drug preference is assessed in a 15-minute post-conditioning trial and is calculated by subtracting the time in the drug-paired compartment at baseline from the time in the drug-paired compartment post-conditioning, with positive values reflecting reward and negative values reflecting aversion.
For all trials, time spent in chambers as well as movement was quantified by infrared photobeam detectors and calculated by Med-PC IV software. […]

Entries after “also recorded” stand apart in the source; their conditions may differ. Structures can show the parent of a compound that is named as a salt. Some results are limits rather than exact numbers.

Consider `[2H]C([2H])([2H])N[C@@]1(c2ccccc2)CCCCC1=O` [Compound 88R, (R)-2-((methyl-d3)amino)-2-phenylcyclohexan-1-one], for which the “formation of metabolites 11R and 11S compared to non-deuterated counterparts” value in data set [1] is reported as “attenuated formation; also recorded: decreased formation”. For orientation: half-life means how long it takes for the measured level to halve. Lower therefore signals fast loss. What is called microsomal CLint is the rate of metabolic loss divided by the concentration. A higher microsomal CLint goes with rapid turnover. On to `Cc1ccccc1[C@]1(N)CCCCC1=O` [Compound 114R, (R)-2-amino-2-(o-tolyl)cyclohexan-1-one], for which, in data set [2], the half-life at 1 μM was > 2.42 h and the microsomal CLint at 1 μM was < 9.6 µL/min/mg. In the case of `CNC1(c2ccccc2)CCCCC1=O` (racemic) [Compound 14rac, 2-(methylamino)-2-phenylcyclohexan-1-one hydrochloride], the “immobility time in FST” value in data set [3] (2 h before test, last 4 minutes, relative to vehicle, hydrochloride) is “reduced time immobile; also recorded: induced antidepressant-like effects”. The “potency at reducing immobility relative to rac-ketamine” value in data set [3] (2 h pre-treatment) is given as “at least 30 fold”. For `Cc1ccccc1[C@@]1(N)CCCCC1=O` [Compound 114S, (S)-2-amino-2-(o-tolyl)cyclohexan-1-one], in data set [2], the half-life at 1 μM was > 2.42 h and the microsomal CLint at 1 μM was < 9.6 µL/min/mg. Turning to `CN[C@]1(c2ccccc2)CCCCC1=O` [Compound 14S, (S)-2-(methylamino)-2-phenylcyclohexan-1-one], the “conditioned place preference (abuse liability)” value in data set [4] is “dose-dependent and significant preference”.

In the case of `CN[C@@]1(c2ccccc2)CCCCC1=O` [Compound 14R, (R)-2-(methylamino)-2-phenylcyclohexan-1-one], the “conditioned place preference (abuse liability)” value in data set [4] is “neither preference nor aversion”.
